From patent US7202239B2, “Cyclohexylphenyl carboxamides tocolytic oxytocin receptor antagonists” (Wyeth, priority 2001, dated 2007)

target: human V2 vasopressin receptor subtype (Homo sapiens, UniProt P30518); test: Vasopressin binding in CHO cell membranes expressing human vasopressin V2 subtype receptors; details: 100 nM, [3H]arginine vasopressin
Excerpt: Vasopressin Binding in Chinese Hamster Ovary Cell Membranes Expressing Human Vasopressin V2 Subtype Receptors
Chinese Hamster Ovary (CHO) cells stably transfected with the human V2 subtype receptors were obtained from M. Thibonnier, Case Western Reserve University School of Medicine, Cleveland, Ohio.
A. Passaging and Amplification of Cells:
CHO cells transfected with the human vasopressin V2 subtype receptors obtained from M. Thibonnier (pZeoSV vector) are allowed to grow to confluency (approx. >90%) in T-150 flasks under sterile conditions, in a cell culture medium of F-12 Nutrient Mixture (HAM) with L-glutamine (Gibco Cat. # 11765-054) containing 15 mM HEPES (Gibco Cat. # 15630-080), 1% antibiotic/antimycotic (add 5 mL 100×, Gibco Cat. # 15240-062 per 500 mL F-12), 250 μg/mL Zeocin (add 1.25 mL of 100 mg/mL Invitrogen R-250-01 per 500 mL F-12) and 10% Fetal Bovine Serum (Qualified, heat inactivated, Gibco Cat. # 16140-063). The medium is removed by aspiration and the cells washed with 10 mL of Hank's Balanced Salt solution (Gibco Cat. # 14175-095). The salt solution is removed by aspiration and the cells trypsinized with 5 mL of trypsin-EDTA (0.05% trypsin, 0.53 mM EDTA-4Na, Gibco Cat. # 25300-070) for 1 min. The trypsin is removed by aspiration and the cells dislodged by tapping. Cell Culture medium (e.g. 30 mL for 1:30 split) is immediately added and mixed well to inactivate trypsin. 1 mL of detached cells is added to new culture flasks containing fresh Cell Culture medium (e.g. into 25 mL per T-150 flask), and mixed gently. The cells are incubated at 37° C. in 5% CO2. The medium is changed at 3 to 4 day interval (or as appropriate). The cells grow to confluency (approx. >75%–95%) within 7–8 days. All steps are done under sterile conditions. B. Membrane Preparation: The cells are washed twice gently with Hank's Balanced Salt solution (e.g. use 10 mL per T-150 flask). The excess solution is removed and the cells bathed for 15–30 min. in an enzyme-free Cell Dissociation Buffer (e.g. use 8 mL Hank's Based, Gibco Cat. # 13150-016 per T-150 flask) until cells are loosened. The contents are transferred to centrifuge tubes (50 mL) kept in an ice bath. All subsequent steps are done at 4° C. The tubes are centrifuged at 300× g for 15 min (1380 rpm on SORVAL, Model RT6000D, using the rotor for 50 mL tubes). The supernatant is discarded and the cells suspended in homogeneizing buffer(10 mM Tris-HCl containing 0.25 M sucrose and 1 mM EDTA, pH 7.4) ensuring that the volume of the buffer is about ten times the volume of the cell pellet. The cells are pooled into a centrifuge tube (50 mL) and homogenized with a Polytron at setting 6 for 10 sec. The homogenate is transferred into a Potter-Elvjehm homogeneizer and homogenized with 3 strokes. The homogenate is centrifuged at 1500×g for 60 min at 4° C. (3100 rpm using SORVAL, model RT6000D, using the rotor for 50 mL tubes). The pellet is discarded. The supernatant is centrifuged at 100,000×g for 60 min. at 4° C. (Beckman L8-80M ultracentrifuge; spin at 37,500 rpm with rotor type 70 Ti for 50 mL tubes; 38,000 rpm with type 80Ti for 15 mL tubes; or 35,800 rpm with rotor type 45Ti). The supernantant is discarded and the pellet suspended in 3 to 4 mL of Tris buffer (50 mM TRIS-HCl, pH 7.4). The protein content is estimated by the Bradford or Lowry method. The volume of the membrane suspension is adjusted with the membrane buffer (50 mM Tris-HCl containing 0.1% BSA and 0.1 mM PMSF) to give 3.0 mg/mL (or as appropriate) of protein. The membranes are aliquoted and stored at −70° C. C. Radioligand Binding Assay: In wells of a 96-well format microtiter plate, is added 90, 110 or 130 μL (to make up a final volume of 200 μL) of assay buffer containing 50 mM of Tris-HCl (pH 7.4), […], 1 mg % aprotinin, 1 mg % leupeptin, 2 mg % 1,10-phenanthroline, 10 mg % trypsin inhibitor, and 0.1 mM PMSF. The inhibitors are added on the day of the experiment. […]

Chain of human V2 vasopressin receptor subtype (P30518 whole entry): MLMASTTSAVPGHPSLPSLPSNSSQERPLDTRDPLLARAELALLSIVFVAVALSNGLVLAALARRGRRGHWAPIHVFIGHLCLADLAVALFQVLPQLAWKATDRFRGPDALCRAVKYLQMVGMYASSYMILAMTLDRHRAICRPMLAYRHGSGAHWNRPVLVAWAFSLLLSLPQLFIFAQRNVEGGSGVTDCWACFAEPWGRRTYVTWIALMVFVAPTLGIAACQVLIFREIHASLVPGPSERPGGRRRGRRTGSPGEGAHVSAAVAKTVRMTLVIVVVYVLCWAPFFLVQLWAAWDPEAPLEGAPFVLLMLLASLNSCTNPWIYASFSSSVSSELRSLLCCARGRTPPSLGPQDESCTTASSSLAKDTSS

V2 % inhibition at 100 nM | inhibition at 0.1 µM | SMILES
18% | – | O=C(NNC(=O)C1CC1)c1ccc2n1Cc1ccccc1N(C(=O)c1ccc(C3CCCCC3)cc1)C2 [Example 13, 10-(4-Cyclohexyl-benzoyl)-N′-(cyclopropylcarbonyl)-10,11-dihydro-5H-pyrrolo[2,1-c][1,4]benzodiazepine-3-carbonyl-hydrazide]
– | 13% | CN(N)C(=O)c1ccc2n1Cc1ccccc1N(C(=O)c1ccc(C3CCCCC3)cc1)C2 [Example 21, 10-(4-Cyclohexyl-benzoyl)-N-methyl-10,11-dihydro-5H-pyrrolo[2,1-c][1,4]benzodiazepine-3-carboxylic acid hydrazide]
19% | – | O=C(O)c1ccc2n1Cc1ccccc1N(C(=O)c1ccc(C3CCCCC3)cc1)C2 [Example 22, 10-(4-Cyclohexyl-benzoyl)-10,11-dihydro-5H-pyrrolo[2,1 c][1,4]benzodiazepine-3-carboxylic acid]
– | 8% | COc1ccc(NC(=O)c2ccc3n2Cc2ccccc2N(C(=O)c2ccc(C4CCCCC4)cc2)C3)cc1 [Example 29, 10-(4-Cyclohexyl-benzoyl)-10,11-dihydro-5H-pyrrolo[2,1-c][1,4]benzodiazepine-3-carboxylic acid (4-methoxy-phenyl)-amide]
– | 14% | CN(C)CCCNC(=O)c1ccc2n1Cc1ccccc1N(C(=O)c1ccc(C3CCCCC3)cc1)C2 [Example 33, 10-(4-Cyclohexyl-benzoyl)-N-[3-(dimethylamino)propyl]-10,11-dihydro-5H-pyrrolo[2,1-c][1,4]benzodiazepine-3-carboxamide]
– | 17% | CN(C)CCN(C)C(=O)c1ccc2n1Cc1ccccc1N(C(=O)c1ccc(C3CCCCC3)cc1)C2 [Example 34, 10-(4-Cyclohexyl-benzoyl)-N-[2-(dimethylamino)-ethyl]-N-methyl-10,11-dihydro-5H-pyrrolo[2,1-c][1,4]benzodiazepine-3-carboxamide]
– | 16% | CN(C)CCCN(C)C(=O)c1ccc2n1Cc1ccccc1N(C(=O)c1ccc(C3CCCCC3)cc1)C2 [Example 35, 10-(4-Cyclohexyl-benzoyl)-N-[3-(dimethylamino)propyl]N-methyl-10,11-dihydro-5H-pyrrolo[2,1-c][1,4]benzodiazepine-3-carboxamide]
– | 1% | O=C(NCCCn1ccnc1)c1ccc2n1Cc1ccccc1N(C(=O)c1ccc(C3CCCCC3)cc1)C2 [Example 36, 10-(4-Cyclohexyl-benzoyl)-N-[3-(1H-imidazol-1-yl)propyl]-10,11-dihydro-5H-pyrrolo[2,1-c][1,4]benzodiazepine-3-carboxamide]
– | 8% | O=C(NCCN1CCCCC1)c1ccc2n1Cc1ccccc1N(C(=O)c1ccc(C3CCCCC3)cc1)C2 [Example 37, 10-(4-Cyclohexyl-benzoyl)-N-[2-(1-piperidinyl)ethyl]-10,11-dihydro-5H-pyrrolo[2,1-c][1,4]benzodiazepine-3-carboxamide]
– | 1% | CN1CCCC1CCNC(=O)c1ccc2n1Cc1ccccc1N(C(=O)c1ccc(C3CCCCC3)cc1)C2 (stereo not shown) [Example 38, 10-(4-Cyclohexyl-benzoyl)-N-[2-(1-methyl-2-pyrrolidinyl)ethyl]-10,11-dihydro-5H-pyrrolo[2,1-c][1,4]benzodiazepine-3-carboxamide]

Second part, the compound before the results:

SMILES | V2 % inhibition at 100 nM | inhibition at 0.1 µM
Cc1ccccc1C(=O)NNC(=O)c1ccc2n1Cc1ccccc1N(C(=O)c1ccc(C3CCCCC3)cc1)C2 [Example 12, 10-(4-Cyclohexyl-benzoyl)-N′-(2-methylbenzoyl)-10,11-dihydro-5H-pyrrolo[2,1-c][1,4]benzodiazepine-3-carbonyl-hydrazide] | 7% | –
Cc1cccc(C(=O)NNC(=O)c2ccc3n2Cc2ccccc2N(C(=O)c2ccc(C4CCCCC4)cc2)C3)c1 [Example 14, 10-(4-Cyclohexyl-benzoyl)-N′-(3-methyl-benzoyl)-10,11-dihydro-5H-pyrrolo[2,1-c][1,4]benzodiazepine-3-carbonyl-hydrazide] | 4% | –
O=C(NNC(=O)c1ccc2n1Cc1ccccc1N(C(=O)c1ccc(C3CCCCC3)cc1)C2)Nc1ccccc1 [Example 15, 2-{[10-(4-Cyclohexyl-benzoyl)-10,11-dihydro-5H-pyrrolo[2,1-c][1,4]benzodiazepin-3-yl]carbonyl}-N-phenyl-1-hydrazinecarboxamide] | – | 11%
O=C(C(=O)N1CCC(N2CCCCC2)CC1)c1ccc2n1Cc1ccccc1N(C(=O)c1ccc(C3CCCCC3)cc1)C2 [Example 31, 1-[1.4′]Bipiperidinyl-1′-yl-2-[10-(4-cyclohexyl-benzoyl)-10,11-dihydro-5H-pyrrolo[2,1-c][1,4]benzodiazepin-3-yl]-ethane-1,2-dione] | 2% | –
CN1CCN(C(=O)C(=O)c2ccc3n2Cc2ccccc2N(C(=O)c2ccc(C4CCCCC4)cc2)C3)CC1 [Example 32, 1-[10-(4-Cyclohexyl-benzoyl)-10,11-dihydro-5H-pyrrolo[2,1-c][1,4]benzodiazepin-3-yl]-2-(4-methyl-1-piperazin-1-yl)-1,2-ethane-1,2-dione] | 6% | –

same assay, conditions: [3H]arginine vasopressin, value in parentheses

IC50 | SMILES
> 1000 nM | CC(=O)c1ccc2n1Cc1ccccc1N(C(=O)c1ccc(C3CCCCC3)cc1)C2 [Example 6, 1-[10-(4-Cyclohexyl-benzoyl)-10,11-dihydro-5H-pyrrolo[2,1-c][1,4]benzodiazepin-3-yl]-ethanone]
> 1000 nM | NNC(=O)c1ccc2n1Cc1ccccc1N(C(=O)c1ccc(C3CCCCC3)cc1)C2 [Example 8, 10-(4-Cyclohexy-benzoyl)-10,11-dihydro-5H-pyrrolo[2,1-c][1,4]benzodiazepine-3-carboxylic acid hydrazide]
> 1000 nM | CC(=O)NNC(=O)c1ccc2n1Cc1ccccc1N(C(=O)c1ccc(C3CCCCC3)cc1)C2 [Example 11, N′-Acetyl-10-(4-cyclohexyl-benzoyl)-10,11-dihydro-5H-pyrrolo[2,1-c][1,4]benzodiazepine-3-carbonyl-hydrazide]

More lines, now with the values behind:

SMILES | IC50
O=C(c1ccc2n1Cc1ccccc1N(C(=O)c1ccc(C3CCCCC3)cc1)C2)N1CCN(c2ncccn2)CC1 [Example 23] | > 1000 nM
O=C(c1ccc2n1Cc1ccccc1N(C(=O)c1ccc(C3CCCCC3)cc1)C2)N1CCC(N2CCCC2)CC1 [Example 25, [10-(4-Cyclohexyl-benzoyl)-10,11-dihydro-5H-pyrrolo[2,1-c][1,4]benzodiazepin-3-yl][4-(1-pyrrolidinyl)-1-piperidinyl]methanone] | > 1000 nM
O=C(c1ccc2n1Cc1ccccc1N(C(=O)c1ccc(C3CCCCC3)cc1)C2)N1CCC(N2CCCCC2)CC1 [Example 26, [1,4′]Bipiperidinyl-1′-yl-[10-(4-cyclohexyl-benzoyl)-10,11-dihydro-5H-pyrrolo[2,1-c][1,4]benzodiazepin-3-yl]-methanone] | > 1000 nM
O=C(c1ccc2n1Cc1ccccc1N(C(=O)c1ccc(C3CCCCC3)cc1)C2)N1CCN(c2ccccn2)CC1 [Example 28, [10-(4-Cyclohexyl-benzoyl)-10,11-dihydro-5H-pyrrolo[2,1-c][1,4]benzodiazepine 3-yl][4-(2-pyridinyl)-1-piperazinyl]-methanone] | > 1000 nM
